Values of other authors as cited in patent US6605304B1, “Silicate-containing powders providing controlled, sustained gas release” (Bernard Technologies, Inc., priority 1998, dated 2003).

How the values were obtained:
[1] = test system: mold spores, bacteria and other microbiological contaminants

## [O][Cl+][O-] [chlorine dioxide]
mice; mice, subchronic and acute oral administration
  chromosomal aberrations or micronuclei in the bone marrow: failed to induce any chromosomal aberrations or increased numbers of micronuclei
[1]
  concentration that penetrates and destroys contaminants: below one

## OCl [hypochlorite]
mice; mouse, in vivo, po
  mutagenic potential: weak positive effect
